What was measured:
Akt = assay: Western blotting of phosphorylated Akt in BT-474 cells; assay type: cell-based, human; details: Example 2, 4-fold dilution series from 1 µmol/L in 5 steps, 2 hours
Description: (§1) Human HER2-expressing human breast cancer cell line BT-474 (purchased from American Tissue Culture Collection (ATCC)) was seeded into a 24-multiwell plate (BT-474: 1.2 x 10^5 cells/well), and cultured overnight in a carbon dioxide gas incubator (5% CO2, 37°C). A 4-fold dilution series of a mitochondrial respiratory chain complex inhibiting compound (complex I: rotenone, complex III: antimycin, complex V: oligomycin: Wako Pure Chemical Industries) was added starting from a final concentration of 1 µmol/L in 5 steps while continuing culture. After 2 hours, the broth was removed, and the cells were lysed with an SDS sample buffer (200 µL). Western blotting analysis was performed as follows. Specifically, this cell lysate (8 µL) was separated by an SDS-PAGE method (gel concentration: 7.5-15%) (Analytical Biochemistry, No. 166, pp. 368-379, 1987), and transferred to a nitrocellulose membrane (BioRad). Then, an antibody specific to phosphorylated HER2 (Cell signaling technology, Code# 2244), an anti-phosphorylated Akt antibody specific to downstream antiapoptotic signal transducing molecule Akt (Cell signaling technology, Code# 9271) and an anti-phosphorylated MAPK antibody specific to downstream proliferation signal transducing molecule MAPK (Cell signaling technology, Code# 9101) were used to detect the antibody with an ECL system (Amersham) to quantify the amount of phosphorylated protein by an image analysis.
(§2) Human HER2-expressing human cancer cell line BT-474 (purchased from ATCC) was seeded into a 24-multiwell plate (1.2 x 10^5 cells/well) and cultured overnight in a carbon dioxide gas incubator (20% O2, 5% CO2, 37°C). A 3-fold dilution series of metformin that activates AMPK (The Journal of Biological Chemistry, Vol. 279, No. 42, pp. 43940-43951, 2004) was added starting from a final concentration of 15 mmol/L in 5 steps while continuing culture. Two hours later, the broth was removed and the cells were lysed with an SDS sample buffer (200 µL). This cell lysate (8 µL) was separated by an SDS-PAGE method (gel concentration: 7.5-15%) (Analytical Biochemistry, No. 166, pp. 368-379, 1987). Then, western blotting analysis was performed in the same manner as in Example 1 to quantify phosphorylated HER2, phosphorylated Akt and phosphorylated MAPK.

MAPK = assay: Western blotting of phosphorylated MAPK in BT-474 cells; assay type: cell-based, human; details: Example 2, 4-fold dilution series from 1 µmol/L in 5 steps, 2 hours
Description: as §1, §2

Substance: antimycin
- Akt phosphorylation (Akt): suppressions of Akt and MAPK phosphorylations were also confirmed
- MAPK phosphorylation (MAPK): suppressions of Akt and MAPK phosphorylations were also confirmed
